Laboratory results from publication PMC9225715, “Development of PD3 and PD3-B for PDEδ inhibition to modulate KRAS activity” (Journal of Enzyme Inhibition and Medicinal Chemistry, 2022).

How the values were obtained:
[1] = molecular target: T1, PDEδ (Homo sapiens, UniProt O43924); assay: FP-based competition binding assay using excess deltarasin
T1 construct: made in house; host or cells: E. coli BL21(DE3)
Procedure: Figure 3. Binding affinities of PDs measured by fluorescence polarisation. (A) Representative binding curve of PDs (PD3) titrated with PDEδ. The FP value was measured in PBS buffer (pH 7.2) containing 8 concentrations (0, 0.5, 1, 2, 4, 8, 16 and 32 μM) of PDEδ mixed with 0.5 μM PDs. Ex: 440 nm, Em: 526 nm; (B) Kd value and half-life of each compound; (C, D) Kinetic trace of PD3 and PD7 in the competition assay. PD3 was shown as a compound with the longest retention time (slow dissociation), whereas PD7 was shown as a compound with the shortest retention time (fast dissociation). The half-life was obtained by a competition binding assay using excess deltarasin. The optimal concentration of PDEδ for the competition assay was determined using the Kd value and PD concentration (0.5 μM) for making more than 68% of the binding complex. Ex: 430 nm, Em: 520 nm. TEXT PRINTED IN THE PICTURE: (A) PD3: Best-fit values Bmax: 261.7; Best-fit values Kd: 0.4991; Std. Error Bmax: 17.98; Std. […] Error Bmax 17.98 (last digit 8 or 6) and Std. Error Kd 0.1956 (5 and 6 not certain) / Panels C and D: k and half-life are printed without a label of their own; assigned to PD3 and PD7 from the panel legends (PDEδ+PD3+Del, PDEδ+PD7+Del)
To confirm that the PD compound occupies the same farnesylation binding site as deltarasin in PDEδ and to exclude the possibility that the FP signal resulted from non-specific hydrophobic interactions, we carried out a FP-based competition assay. PDs (0.5 µM) were incubated with the purified PDEδ protein for 2 h to ensure complete binding between the compound and the protein. Then, deltarasin was added to replace the PD compound in the prenyl binding pocket of PDEδ, which decreased the FP due to the free rotation of the released PD compound. As shown in Figure 3(B), the reverse correlation between Kd values and half-lives was observed (Figure 3(B) and Table 1). […] The rate constants and half-lives were measured only when the increased concentration of deltarasin produced concentration-independent kinetic parameters, which reflects complete displacement of the binding site with the deltarasin. The kinetic trace was fit to a single exponential decay to generate the dissociation rate constant and half-life. Given that the Kd value is a ratio of koff/kon in a simple bimolecular binding model, the measured half-life and Kd are not always matched due to the contribution from the association rate constant. Figure 3(C) (PD3) and 3 D (PD7) show a representative kinetic trace obtained in the competition assay.
Deltarasin, a well-known PDEδ inhibitor, was purchased from Chemietek (Indianapolis, IN) for the competition assay. Assay buffer and the plate were the same as used in fluorescence polarisation assay. The optimal concentration of PDEδ was determined based on the Kd values and ligand concentration (0.5 µM) to ensure the formation of ligand-protein complex. The mixture of PDEδ and compounds were incubated for 2 h at 4 °C. After adding deltarasin to the mixture, FP was immediately recorded by SpectraMax M5 microplate reader (Molecular Devices, San Jose, CA) with excitation at 430 nm and emission at 520 nm. In SpectraMax M5 microplate reader, single excitation and emission wavelengths need to be used for testing all compounds. Therefore, Ex 430/Em 520 was used for competition binding assay. The selected ex/em wavelengths have only a difference of less than 10 nm from the maximum wavelengths, and there was no critical issue for conducting assay. The kinetic trace was fit to a single exponential decay to generate dissociation rate constant and half-life.

[2] = molecular target: T1, PDEδ; assay: Fluorescence measurement after incubation with recombinant PDEδ; assay type: binding; settings: 2 µM PD + 2 µM PDEδ, 20 mM Tris buffer pH 7.5, Ex 280 nm
Procedure: With the structural rationale for the binding to PDEδ from the molecular docking studies, we measured the fluorescence responses of the PDs after incubation with recombinant PDEδ proteins to confirm the binding of PDs to PDEδ. We envisioned that the hydrophobic environment of the prenyl binding pocket of PDEδ, as depicted in Figure 1(C), could enhance the fluorescent signal due to the solvatochromic characteristics of IQ scaffold. In addition, tryptophan residues near the binding site of PDEδ and the fluorophore of PDs could act as a fluorescence resonance energy transfer (FRET) pair. […] All recoded spectra of PDs are depicted in Supplemental Figure S1. To compare the binding abilities of PD derivatives to the target protein, same concentration (2 µM) of PD compound was treated and then fluorescence intensity was measured in Spectrofluorometer FP-6500.
The fluorescence changes were measured to determine the interaction between PD compounds and PDEδ protein. The fluorescence spectra were obtained under Tris buffer [20 mM Tris-HCl (pH 7.5), 100 mM NaCl] at 20 °C. The concentration of PDEδ was 2 µM. After the addition of 2 µM PD compound, the mixture was gently inverted 3 times and then incubated for 1 min. The emission spectra were recorded on Spectrofluorometer FP-6500 (JASCO, Tokyo, Japan) at Ex 280 nm. The band width was 3 nm for excitation and 5 nm for emission.

`Cc1ccc(-c2nc3ccccc3c3cc4ccccn4c23)cc1` [PD3, 6-(p-tolyl)indolizino[3,2-c]quinoline] was tested, and the Half-life ([1]; representative kinetic trace, single exponential decay) was 45 min, the koff ([1]; representative kinetic trace, single exponential decay, read-out: dissociation rate constant k (converted)) was 0.00025 s⁻¹ and the Half-life ([1]; retention in PDEδ on displacement by excess deltarasin, 0.5 µM PD, mean ± SD of three independent experiments) was 41 ± 6 min. For the same compound, the “Fluorescence response upon incubation with PDEδ” value [2] was “exceeded the maximum detection limit of Spectrofluorometer”.
